Here are results for seven molecules from US4393210A, “1(2H)-Isoquinolone compounds and acid addition salts thereof” (Seiyaku Co., Ltd., priority 1980, dated 1983).

A word on the LD50: it is the dose expected to kill half of the subjects tested.

For data set [1], the system named is gastric secretion. The data set can be described thus: Gastric secretion inhibitory activity, pylorus ligation. The format is in vivo, Wister male rats. To be noted: for pH Value (gastric juice) / Amount of Gastric Juice / Amount of Output Secretion: 4 hours, n=10; for pH Value (gastric juice): control 1.71 ± 0.11; for Amount of Gastric Juice: control 2.51 ± 0.32; for Amount of Gastric Juice / Amount of Output Secretion: **p < 0.01; for Amount of Output Secretion: control 184 ± 27.2; for effect on volume of gastric juice, acid secretion and pH value: Table 2, 100 mg/kg. As to the method:
The pylorus of Wister male rats (body weight, 180 to 200 g) fasted for 24 hours was ligated under ether anesthesia and, immediately thereafter, the test compound was administered into the duodenum. Four hours after the administration, the stomach was extracted and gastric juice was collected and centrifuged at 3,000 r.p.m. for 15 minutes. The volume of gastric juice, the pH value and the amount of output secretion were then determined with respect to the supernatant.

The subject of data set [2] is ulcer generation caused by water-dipping restriction stress. The data set can be described thus: Anti-ulcer activity, stress ulcer (water-dipping restriction stress). The note with it: for Percent Inhibition (stress ulcer) / Ulcerous Index: oral; for Ulcerous Index: n=6, control 75.8. The format is in vivo, Wister male rats. How it is done: The test compound was administered orally to Wister male rats (body weight, 200 to 230 g) and then the rats were tied up with a steel wire and dipped in water at 23° C. in a tank to the level of the xiphisternum of rats. After allowing the rats to stand for 7 hours in water, the rats were sacrificed and the stomach was extracted. 10 ml of a 1% formalin solution was injected into the stomach cavity and the stomach was dipped in a 1% formalin solution for 15 minutes to semi-harden the stomach. The stomach was excised along the greater curvature thereof and the ulcer generated in the portion of corpus ventriculi was observed.

The test system of data set [3] is pain reaction induced by acetic acid injection. In words: Analgesic activity, acetic acid stretching method (Koster et al). The format is in vivo, ddy male mice. To be noted: oral; for Number of Stretching: n=8, control 36.5 ± 6.5. How it is done: According to the acetic acid stretching method described by Koster et al [Fed. Pro., 18, 412 (1959)], Compound A was administered orally to ddy male mice (body weight, 20 to 25 g) fasted overnight before test. One hour after administration of Compound A, a 0.6% aqueous acetic acid solution was administered intraperitoneally at a dose of 0.35 ml per mouse and the stretching of the mice was observed 10 minutes after the administration of the acetic acid solution for a period of 10 minutes, and the percent inhibition was calculated.

Data set [4] relates to histamine-induced contraction, guinea pig ileum. In words: Anti-histamine activity, histamine-induced contraction of extracted ileum (Magnus tube). The note with it: 31° C.; for shift of histamine-induced contraction curve: treatment 30 seconds before inducing contraction; for anti-histamine activity: guinea pig ileum. As to the method:
(§1) The ileum of guinea pig (body weight, 300 to 400 g) was extracted and suspended in a Magnus tobe containing Tyrode's solution (saturated with oxygen) at 31° C. and the inhibitory activity of the test compounds on the contraction induced by administration of histamine or acetylchloline was determined. The treatment with the test compounds was conducted 30 seconds before inducing the contraction.

Data set [5] has as its system contraction induced by acetylchloline, ileum of guinea pig. In words: Anti-cholinergic activity, acetylcholine-induced contraction of extracted ileum (Magnus tube). To be noted: 31° C. How it is done:
as §1

The nature of data set [6]: Acute toxicity. To be noted: mouse, in vivo; mice fasted overnight, observed for 7 days; route not stated. As to the method: The test compound was administered to ddy male mice (body weight, 20 to 25 g) fasted overnight before administration.
The subject of data set [7] is indomethacin-induced ulcer. In words: Anti-ulcer activity, indomethacin-induced ulcer. The format is in vivo, Wister male rats. To be noted: for Percent Inhibition (indomethacin ulcer) / Ulcerous Index: oral; for Ulcerous Index: control 15.4, indomethacin 20 mg/kg s.c. How it is done:
A suspension of indomechacin in 0.25% CMC was administered subcutaneously at a dose of 20 mg/kg to Wister male rats (body weight, 125 to 150 g) fasted for 24 hours. The test compound was administered orally 30 minutes before the administration of indomethacin. Seven hours after the administration of indomethacin, the rats were sacrificed by dislocation of neck, and the stomach was extracted. 7.5 ml of 1% formalin solution was injected into the stomach cavity, and the stomack was hardened. The linear-type ulcer generated in the mucous membrane of the stomach was then observed.

Data set [8] deals with decrease in body temperature induced by administration of reserpine. In words: Anti-reserpine (anti-depression) activity, rectal temperature. The format is in vivo, ddy male mice. The note with it: oral, 50 and 100 mg/kg; reserpine 2 mg/kg s.c. twice. As to the method: Reserpine was administered subcutaneously to ddy male mice (body weight, 25 to 30 g) at a dose of 2 mg/kg and, after fasting for 18 hours, reserpine was again administered subcutaneously at a dose of 2 mg/kg. Five hours after the second administration of reserpine, the mice which indicated a constant decrease in body temperature were selected and administered orally with the test compound (Compound C), followed by measuring the rectal temperature of the mice at one hour intervals.
In this experiment, Imipramine (10,11-dihydro-N,N-dimethyl-5H-dibenz[b,f]azepine-5-propanamine) and Amitriptyline [3-(10,11-dihydro-5H-dibenzo[a,d]-cyclohepten-5-ylidene)-N,N-dimethyl-1-propanamine] were used as typical examples of known compounds for comparison and the results obtained with these compounds are also shown in FIG. 1(a).

Setting [9] is: 100 mg/kg into the duodenum, *p < 0.05.

Where a name gives a salt, the structure may show the parent alone.

Turning to `CN1[C@@H]2CC[C@H]1C[C@@H](OC(=O)C(CO)c1ccccc1)C2` (stereo partly drawn) [Atropine, reference compound], in data set [1] (5 mg/kg into the duodenum), the “pH Value (gastric juice)” value is 2.22 ± 0.25, the “Amount of Gastric Juice” value amounted to 0.90 ± 0.09 mL and the “Amount of Output Secretion” value stood at 57 ± 6.0 μ Eq. Further, in data set [2] (5 mg/kg), the “Percent Inhibition (stress ulcer)” value was 93.0% and the “Ulcerous Index” value amounted to 5.3 mm.

For `CN(C)CCCn1cc(-c2ccccc2)c2ccccc2c1=O` [Compound A, 2-(3-N,N-dimethylaminopropyl)-4-phenyl-1(2H)-isoquinolone tartrate], the “Number of Stretching” value in data set [3] (25 mg/kg) was determined as 33.8 ± 8.2; in data set [3] (50 mg/kg, *p < 0.05) it was 16.9 ± 4.8; in data set [3] (100 mg/kg, **p < 0.01), 10.0 ± 2.8. Further, the “Percent Inhibition (stretching)” value was 53.7% in data set [3] (50 mg/kg) and 72.6% in data set [3] (100 mg/kg). The “inhibition of the pain reaction induced by acetic acid injection” value in data set [3] (50 and 100 mg/kg) is on record as “inhibited the pain reaction induced by acetic acid injection”. Moreover, in data set [4], the “shift of histamine-induced contraction curve” value (shortened to “shift”) was “shift the hitamine-induced contraction curve determined in guinea pig ileum to the right direction on the figures in parallel”. Also, the anti-histamine activity result in data set [4] is given as “possess a specific anti-histamine activity”. Besides, the anti-cholinergic activity result in data set [5] was “non-specific anti-cholinergic activity”. The “pH Value (gastric juice)” value in data set [1] (setting [9]) came to 3.06 ± 0.44. For the same molecule, the “Amount of Gastric Juice” value in data set [1] (100 mg/kg into the duodenum) was determined as 0.53 ± 0.12 mL. Also, the “Amount of Output Secretion” value in data set [1] (100 mg/kg into the duodenum) was 22 ± 5.9 μ Eq. In addition, the “effect on volume of gastric juice, acid secretion and pH value” in data set [1] is “reduce the volume of gastric juice and the acid secretion and increase the pH value”. Moreover, the LD50 at 168 h in data set [6] came to 662 mg/kg. The “inhibition of ulcer generation caused by water-dipping restriction stress” value in data set [2] (dose of 25, 50 and 100 mg) is on record as “inhibits the ulcer generation caused by water-dipping restriction stress”. The “Percent Inhibition (stress ulcer)” value in data set [2] (25 mg/kg) is 23.5%; in data set [2] (50 mg/kg) it was 36.4%; in data set [2] (100 mg/kg) it was 66.0%. The “Ulcerous Index” value in data set [2] (25 mg/kg) stood at 58.0 mm; in data set [2] (50 mg/kg), 48.2 mm; in data set [2] (100 mg/kg), 25.3 mm.

Take `CN(C)CCn1cc(-c2ccccc2)c2ccccc2c1=O` [Compound B, 2-(2-N,N-dimethylaminoethyl)-4-phenyl-1(2H)-isoquinolone hydrochloride]: in data set [4], the “shift” value is reported as “shift the hitamine-induced contraction curve determined in guinea pig ileum to the right direction on the figures in parallel” and the anti-histamine activity entry was “possess a specific anti-histamine activity”. Further, the anti-cholinergic activity result in data set [5] is reported as “non-specific anti-cholinergic activity”. Besides, in data set [6], the LD50 at 168 h stood at 195 mg/kg. For the same molecule, in data set [7] (50 mg/kg), the “inhibition of indomethacin-induced ulcer” value is recorded as “inhibit the indomethacin-induced ulcer” and the “Percent Inhibition (indomethacin ulcer)” value was 61.0%. Further, in data set [7] (50 mg/kg, n=8), the “Ulcerous Index” value was 6.0 mm.

On to `CN(C)CCCn1cc(C#N)c2ccccc2c1=O` [Compound C, 4-cyano-2-(3-N,N-dimethylaminopropyl)-1(2H)-isoquinolone tartrate 1/2 hydrate], for which, in data set [4], the “shift” value is “shift the hitamine-induced contraction curve determined in guinea pig ileum to the right direction on the figures in parallel” and the anti-histamine activity result is listed as “possess a specific anti-histamine activity”. Besides, in data set [8], the “rectal temperature decreased by pretreatment with reserpine” value was “increases at a dose of 50 and 100 mg/kg significantly the rectal temperature”. Moreover, the “pH Value (gastric juice)” value in data set [1] (setting [9]) amounted to 1.88 ± 0.10. In data set [1] (100 mg/kg into the duodenum), the “Amount of Gastric Juice” value is 1.85 ± 0.35 mL and the “Amount of Output Secretion” value amounted to 72 ± 5.3 μ Eq. In data set [1], the “effect on volume of gastric juice, acid secretion and pH value” was “reduce the volume of gastric juice and the acid secretion and increase the pH value”. This molecule registered a 50% lethal dose (LD50) at 168 h in data set [6] of 699 mg/kg.

In the case of `CC(Cn1cc(-c2ccccc2)c2ccccc2c1=O)N(C)C` (stereo not drawn) [Compound D, 2-(2-N,N-dimethylaminopropyl)-4-phenyl-1(2H)-isoquinolone maleate], the LD50 at 168 h in data set [6] was 505 mg/kg. For the same molecule, in data set [7] (50 mg/kg), the “inhibition of indomethacin-induced ulcer” value is reported as “inhibit the indomethacin-induced ulcer” and the “Percent Inhibition (indomethacin ulcer)” value came out at 73.0%. Moreover, the “Ulcerous Index” value in data set [7] (50 mg/kg, n=8) was 4.1 mm.

Take `CCN1CCCC1CNC(=O)c1cc(S(N)(=O)=O)ccc1OC` (stereo not drawn) [Sulpiride, 5(aminosulfonyl)-N--(1ethyl-2-pyrrolidinyl)-methyl 2-methoxybenzamide, reference compound]: the “Ulcerous Index” value in data set [2] (100 mg/kg) came out at 71.0 mm.

As to “basic aluminum sucrose sulfate [Sucralfate, reference compound]”, in data set [7] (300 mg/kg), the “Percent Inhibition (indomethacin ulcer)” value was 81.1% and the “Ulcerous Index” value stood at 2.9 mm.
